Reference: US20220389061A1, “IMMUNOMODULATORS” (priority 2019, published 2022)
Starred links: 1 amine or outer side, 2 acyl side, 3 side chain; linkers in the order of their positions; H or OH if unused. Positions of bridges follow the written chain, without caps; N, C: chain ends. Non-standard residues stand in square brackets, D forms with d. Residues, ends and D or L forms follow the SMILES beside them. Groups on a side chain read outwards from the residue. *: point of attachment. Trp(1-CH2CO2Me) = COC(=O)Cn1cc(C[C@H](N)C(=O)O)c2ccccc21; Trp(1-CH2COOH) = N[C@@H](Cc1cn(CC(=O)O)c2ccccc12)C(=O)O; Benzoyl(2-(4-MeOPh)) = COc1ccc(-c2ccccc2C(=O)*)cc1; X23 = COc1cc(NC(=S)*)ccc1-n1cnc(Cl)c1; X31 = S=C(Nc1cccc2c(Cl)c[nH]c12)*; Hyp = O=C(O)[C@@H]1C[C@@H](O)CN1; X14 = Cc1c[nH]c2c(NC(=S)*)cccc12; X30 = FC(F)(F)c1ccc(N*)c(Cl)c1; X72 = COc1ccc2nccc(C(=O)*)c2c1; pNA = O=[N+]([O-])c1ccc(N*)cc1; NMeNle = CCCC[C@H](NC)C(=O)O; X4 = S=C(Nc1ccc2c(c1)OCCO2)*; X92 = FC(F)(F)c1cc(Cl)ccc1N*; X12 = S=C(Nc1ccc2ccccc2c1)*; X5 = S=C(Nc1cccc2ccccc12)*; X6 = CCCCCCCOc1ccc(N*)cc1; NMeA = CN[C@@H](C)C(=O)O; Dab = NCC[C@H](N)C(=O)O; Dap = NC[C@H](N)C(=O)O; X15 = Cc1ccc(Cl)cc1N*; CO = O=C([*:1])[*:2]

Molecular target: T1, PD-1/PD-L1 (Homo sapiens, UniProt Q9NZQ7)
T1 construct: TVMV protease site linker (C); made in house; host or cells: HEK293T cells
Test: PD-1/PD-L1 Homogenous Time-Resolved Fluorescence (HTRF) binding assay
Details: not given
In short: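 Compounds preincubated 15 min with PD-L1-His (10 nM final), then PD-1-Ig (20 nM final) added for 15 min in dPBS with 0.1% BSA, 0.05% Tween-20. Detection by Eu-cryptate anti-Ig (1 nM) and APC anti-His (20 nM) HTRF.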

T1 sequence (Q9NZQ7 18-239): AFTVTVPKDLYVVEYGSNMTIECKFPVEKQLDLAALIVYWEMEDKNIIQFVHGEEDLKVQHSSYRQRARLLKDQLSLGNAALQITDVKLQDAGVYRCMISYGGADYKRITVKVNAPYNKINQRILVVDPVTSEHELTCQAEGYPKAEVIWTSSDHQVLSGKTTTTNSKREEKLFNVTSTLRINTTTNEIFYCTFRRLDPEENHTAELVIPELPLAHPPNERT

| Structure (SMILES) | IC50 |
| --- | --- |
| CCCC[C@H]1C(=O)N(C)[C@@H](CCCC)C(=O)N[C@@H](CC(C)C)C(=O)N[C@H](C(=O)NCC(N)=O)CSCC(=O)N[C@@H](Cc2ccc(O)cc2)C(=O)N(C)[C@@H](C)C(=O)N[C@@H](CC(N)=O)C(=O)N2CCC[C@H]2C(=O)N[C@@H](CN)C(=O)N[C@@H](CC(C)C)C(=O)N2C[C@H](O)C[C@H]2C(=O)N[C@@H](Cc2c[nH]c3ccccc23)C(=O)N[C@@H](CCNC(=O)Nc2ccc([N+](=O)[O-])cc2)C(=O)N[C@@H](Cc2cn(CC(=O)O)c3ccccc23)C(=O)N1C [Example 1131] ({CH2CO}-Y[NMeA]NP[Dap]L[Hyp]W[Dab]([CO-pNA])[Trp(1-CH2COOH)][NMeNle][NMeNle]LCG-NH2; thioether N-14) | 7.3 nM |

Same assay, conditions: PD-L1-His 10 nM pre-incubated with inhibitor, PD-1-Ig 20 nM; read-out: HTRF IC50

| Structure (SMILES) | IC50 |
| --- | --- |
| CCCC[C@H]1C(=O)N(C)[C@@H](CCCC)C(=O)N[C@@H](CC(C)C)C(=O)N[C@H](C(=O)NCC(N)=O)CSCC(=O)N[C@@H](Cc2ccc(O)cc2)C(=O)N(C)[C@@H](C)C(=O)N[C@@H](CC(N)=O)C(=O)N2CCC[C@H]2C(=O)N[C@@H](CNC(=O)Nc2ccc(C(F)(F)F)cc2Cl)C(=O)N[C@@H](CC(C)C)C(=O)N2C[C@H](O)C[C@H]2C(=O)N[C@@H](Cc2c[nH]c3ccccc23)C(=O)N[C@@H](CCN)C(=O)N[C@@H](Cc2cn(CC(=O)O)c3ccccc23)C(=O)N1C [Example 1105] ({CH2CO}-Y[NMeA]NP[Dap]([CO-X30])L[Hyp]W[Dab][Trp(1-CH2COOH)][NMeNle][NMeNle]LCG-NH2; thioether N-14) | 26 nM |
| CCCCCCCOc1ccc(NC(=O)NCC[C@@H]2NC(=O)[C@H](Cc3c[nH]c4ccccc34)NC(=O)[C@@H]3C[C@@H](O)CN3C(=O)[C@H](CC(C)C)NC(=O)[C@H](CNC(=O)Nc3ccc(OCCCCCCC)cc3)NC(=O)[C@@H]3CCCN3C(=O)[C@H](CC(N)=O)NC(=O)[C@H](C)N(C)C(=O)[C@H](Cc3ccc(O)cc3)NC(=O)CSC[C@@H](C(=O)NCC(N)=O)NC(=O)[C@H](CC(C)C)NC(=O)[C@H](CCCC)N(C)C(=O)[C@H](CCCC)N(C)C(=O)[C@H](Cc3cn(CC(=O)O)c4ccccc34)NC2=O)cc1 [Example 1090] ({CH2CO}-Y[NMeA]NP[Dap]([CO-X6])L[Hyp]W[Dab]([CO-X6])[Trp(1-CH2COOH)][NMeNle][NMeNle]LCG-NH2; thioether N-14) | 242 nM |
| CCCC[C@H]1C(=O)N(C)[C@@H](CCCC)C(=O)N[C@@H](CC(C)C)C(=O)N[C@H](C(=O)NCC(N)=O)CSCC(=O)N[C@@H](Cc2ccc(O)cc2)C(=O)N(C)[C@@H](C)C(=O)N[C@@H](CC(N)=O)C(=O)N2CCC[C@H]2C(=O)N[C@@H](CNC(=O)c2ccccc2-c2ccc(OC)cc2)C(=O)N[C@@H](CC(C)C)C(=O)N2C[C@H](O)C[C@H]2C(=O)N[C@@H](Cc2c[nH]c3ccccc23)C(=O)N[C@@H](CCN)C(=O)N[C@@H](Cc2cn(CC(=O)O)c3ccccc23)C(=O)N1C [Example 1063] ({CH2CO}-Y[NMeA]NP[Dap](Benzoyl(2-(4-MeOPh)))L[Hyp]W[Dab][Trp(1-CH2COOH)][NMeNle][NMeNle]LCG-NH2; thioether N-14) | 3.7 nM |
| CCCC[C@H]1C(=O)N(C)[C@@H](CCCC)C(=O)N[C@@H](CC(C)C)C(=O)N[C@H](C(=O)NCC(N)=O)CSCC(=O)N[C@@H](Cc2ccc(O)cc2)C(=O)N(C)[C@@H](C)C(=O)N[C@@H](CC(N)=O)C(=O)N2CCC[C@H]2C(=O)N[C@@H](CNC(=O)Nc2ccc(Cl)cc2C(F)(F)F)C(=O)N[C@@H](CC(C)C)C(=O)N2C[C@H](O)C[C@H]2C(=O)N[C@@H](Cc2c[nH]c3ccccc23)C(=O)N[C@@H](CCNC(=O)Nc2ccc(Cl)cc2C(F)(F)F)C(=O)N[C@@H](Cc2cn(CC(=O)O)c3ccccc23)C(=O)N1C [Example 1138] ({CH2CO}-Y[NMeA]NP[Dap]([CO-X92])L[Hyp]W[Dab]([CO-X92])[Trp(1-CH2COOH)][NMeNle][NMeNle]LCG-NH2; thioether N-14) | 9.7 nM |
| CCCC[C@H]1C(=O)N(C)[C@@H](CCCC)C(=O)N[C@@H](CC(C)C)C(=O)N[C@H](C(=O)NCC(N)=O)CSCC(=O)N[C@@H](Cc2ccc(O)cc2)C(=O)N(C)[C@@H](C)C(=O)N[C@@H](CC(N)=O)C(=O)N2CCC[C@H]2C(=O)N[C@@H](CNC(=O)c2ccnc3ccc(OC)cc23)C(=O)N[C@@H](CC(C)C)C(=O)N2C[C@H](O)C[C@H]2C(=O)N[C@@H](Cc2c[nH]c3ccccc23)C(=O)N[C@@H](CCNC(=O)c2ccnc3ccc(OC)cc23)C(=O)N[C@@H](Cc2cn(CC(=O)OC)c3ccccc23)C(=O)N1C [Example 3010] ({CH2CO}-Y[NMeA]NP[Dap](X72)L[Hyp]W[Dab](X72)[Trp(1-CH2CO2Me)][NMeNle][NMeNle]LCG-NH2; thioether N-14) | 7.8 nM |

Results, then the compound that gave them:

| IC50 | Structure (SMILES) |
| --- | --- |
| 2.5 nM | CCCC[C@H]1C(=O)N(C)[C@@H](CCCC)C(=O)N[C@@H](CC(C)C)C(=O)N[C@H](C(=O)NCC(N)=O)CSCC(=O)N[C@@H](Cc2ccc(O)cc2)C(=O)N(C)[C@@H](C)C(=O)N[C@@H](CC(N)=O)C(=O)N2CCC[C@H]2C(=O)N[C@@H](CNC(=S)Nc2cccc3c(C)c[nH]c23)C(=O)N[C@@H](CC(C)C)C(=O)N2C[C@H](O)C[C@H]2C(=O)N[C@@H](Cc2c[nH]c3ccccc23)C(=O)N[C@@H](CCN)C(=O)N[C@@H](Cc2cn(CC(=O)O)c3ccccc23)C(=O)N1C [Example 3020] ({CH2CO}-Y[NMeA]NP[Dap](X14)L[Hyp]W[Dab][Trp(1-CH2COOH)][NMeNle][NMeNle]LCG-NH2; thioether N-14) |
| 4.9 nM | CCCC[C@H]1C(=O)N(C)[C@@H](CCCC)C(=O)N[C@@H](CC(C)C)C(=O)N[C@H](C(=O)NCC(N)=O)CSCC(=O)N[C@@H](Cc2ccc(O)cc2)C(=O)N(C)[C@@H](C)C(=O)N[C@@H](CC(N)=O)C(=O)N2CCC[C@H]2C(=O)N[C@@H](CNC(=S)Nc2ccc3ccccc3c2)C(=O)N[C@@H](CC(C)C)C(=O)N2C[C@H](O)C[C@H]2C(=O)N[C@@H](Cc2c[nH]c3ccccc23)C(=O)N[C@@H](CCNC(=S)Nc2ccc3ccccc3c2)C(=O)N[C@@H](Cc2cn(CC(=O)O)c3ccccc23)C(=O)N1C [Example 3014] ({CH2CO}-Y[NMeA]NP[Dap](X12)L[Hyp]W[Dab](X12)[Trp(1-CH2COOH)][NMeNle][NMeNle]LCG-NH2; thioether N-14) |
| 1.5 nM | CCCC[C@H]1C(=O)N(C)[C@@H](CCCC)C(=O)N[C@@H](CC(C)C)C(=O)N[C@H](C(=O)NCC(N)=O)CSCC(=O)N[C@@H](Cc2ccc(O)cc2)C(=O)N(C)[C@@H](C)C(=O)N[C@@H](CC(N)=O)C(=O)N2CCC[C@H]2C(=O)N[C@@H](CNC(=S)Nc2cccc3ccccc23)C(=O)N[C@@H](CC(C)C)C(=O)N2C[C@H](O)C[C@H]2C(=O)N[C@@H](Cc2c[nH]c3ccccc23)C(=O)N[C@@H](CCNC(=S)Nc2cccc3ccccc23)C(=O)N[C@@H](Cc2cn(CC(=O)O)c3ccccc23)C(=O)N1C [Example 3033] ({CH2CO}-Y[NMeA]NP[Dap](X5)L[Hyp]W[Dab](X5)[Trp(1-CH2COOH)][NMeNle][NMeNle]LCG-NH2; thioether N-14) |
| 3.5 nM | CCCC[C@H]1C(=O)N(C)[C@@H](CCCC)C(=O)N[C@@H](CC(C)C)C(=O)N[C@H](C(=O)NCC(N)=O)CSCC(=O)N[C@@H](Cc2ccc(O)cc2)C(=O)N(C)[C@@H](C)C(=O)N[C@@H](CC(N)=O)C(=O)N2CCC[C@H]2C(=O)N[C@@H](CNC(=S)Nc2ccc(-n3cnc(Cl)c3)c(OC)c2)C(=O)N[C@@H](CC(C)C)C(=O)N2C[C@H](O)C[C@H]2C(=O)N[C@@H](Cc2c[nH]c3ccccc23)C(=O)N[C@@H](CCN)C(=O)N[C@@H](Cc2cn(CC(=O)O)c3ccccc23)C(=O)N1C [Example 1059] ({CH2CO}-Y[NMeA]NP[Dap](X23)L[Hyp]W[Dab][Trp(1-CH2COOH)][NMeNle][NMeNle]LCG-NH2; thioether N-14) |
| 4.3 nM | CCCC[C@H]1C(=O)N(C)[C@@H](CCCC)C(=O)N[C@@H](CC(C)C)C(=O)N[C@H](C(=O)NCC(N)=O)CSCC(=O)N[C@@H](Cc2ccc(O)cc2)C(=O)N(C)[C@@H](C)C(=O)N[C@@H](CC(N)=O)C(=O)N2CCC[C@H]2C(=O)N[C@@H](CNC(=O)Nc2cc(Cl)ccc2C)C(=O)N[C@@H](CC(C)C)C(=O)N2C[C@H](O)C[C@H]2C(=O)N[C@@H](Cc2c[nH]c3ccccc23)C(=O)N[C@@H](CCNC(=O)Nc2cc(Cl)ccc2C)C(=O)N[C@@H](Cc2cn(CC(=O)O)c3ccccc23)C(=O)N1C [Example 1118] ({CH2CO}-Y[NMeA]NP[Dap]([CO-X15])L[Hyp]W[Dab]([CO-X15])[Trp(1-CH2COOH)][NMeNle][NMeNle]LCG-NH2; thioether N-14) |
| 3.3 nM | CCCC[C@H]1C(=O)N(C)[C@@H](CCCC)C(=O)N[C@@H](CC(C)C)C(=O)N[C@H](C(=O)NCC(N)=O)CSCC(=O)N[C@@H](Cc2ccc(O)cc2)C(=O)N(C)[C@@H](C)C(=O)N[C@@H](CC(N)=O)C(=O)N2CCC[C@H]2C(=O)N[C@@H](CNC(=S)Nc2cccc3c(Cl)c[nH]c23)C(=O)N[C@@H](CC(C)C)C(=O)N2C[C@H](O)C[C@H]2C(=O)N[C@@H](Cc2c[nH]c3ccccc23)C(=O)N[C@@H](CCNC(=S)Nc2cccc3c(Cl)c[nH]c23)C(=O)N[C@@H](Cc2cn(CC(=O)O)c3ccccc23)C(=O)N1C [Example 3019] ({CH2CO}-Y[NMeA]NP[Dap](X31)L[Hyp]W[Dab](X31)[Trp(1-CH2COOH)][NMeNle][NMeNle]LCG-NH2; thioether N-14) |
| 2.6 nM | CCCC[C@H]1C(=O)N(C)[C@@H](CCCC)C(=O)N[C@@H](CC(C)C)C(=O)N[C@H](C(=O)NCC(N)=O)CSCC(=O)N[C@@H](Cc2ccc(O)cc2)C(=O)N(C)[C@@H](C)C(=O)N[C@@H](CC(N)=O)C(=O)N2CCC[C@H]2C(=O)N[C@@H](CNC(=S)Nc2ccc3c(c2)OCCO3)C(=O)N[C@@H](CC(C)C)C(=O)N2C[C@H](O)C[C@H]2C(=O)N[C@@H](Cc2c[nH]c3ccccc23)C(=O)N[C@@H](CCNC(=S)Nc2ccc3c(c2)OCCO3)C(=O)N[C@@H](Cc2cn(CC(=O)O)c3ccccc23)C(=O)N1C [Example 3007] ({CH2CO}-Y[NMeA]NP[Dap](X4)L[Hyp]W[Dab](X4)[Trp(1-CH2COOH)][NMeNle][NMeNle]LCG-NH2; thioether N-14) |
